Measurements: US20250042873A1, “COMPOSITIONS AND METHODS FOR TREATING PROTEOTOXICITY-ASSOCIATED DISEASES” (priority 2021, published 2025)
“Also recorded” adds a separate entry of the source.

Tests used:
[1] = test system: tau protein expressed in human HEK293 cells; test: Clearance of tau protein expressed in human HEK293 cells; assay type: cell-based; details: FIG. 4B
[2] = Brain penetration and pharmacokinetic studies using mass spectrometry analysis after intraperitoneal administration; assay type: in vivo; details: mice; for blood-brain barrier penetration (detection in brain and spinal cord tissues): within minutes after intraperitoneal administration, mass spectrometry
SOD1G93A ALS mouse model [3] = test: Motor performance in the SOD1G93A ALS mouse model (Rotarod behavioral assays); assay type: in vivo; details: intraperitoneal injections at the same drug concentration, compared with UNC669, FIG. 3J
Method: The effect of UNC669 was tested on one of the most characterized mouse model of proteotoxicity, the SOD1G93A ALS model.
A number of the newly synthesized UNC669 analogs have been tested for their effects on the clearance of misfolded proteins in the cells.

SOD1G93A ALS mouse model [4] = details: SOD1G93A mice, 17 mg/kg intraperitoneal, weekly from 8 weeks of age, after 12 weeks, FIG. 2B (prior art); cited from earlier work
[5] = test system: misfolded mutant SOD1 in the spinal cords; details: FIG. 2D (prior art), cited from earlier work

O=C(c1cncc(Cl)c1)N1CCC(N2CCCC2)CC1 [FX6]
clearance / levels of tau protein [1]: higher efficacy
blood-brain barrier penetration (detection in brain and spinal cord tissues) [2]: can penetrate the blood-brain barrier
effect on improving motor performance (Rotarod) (SOD1G93A ALS mouse model [3]): greater effects on improving the animals' motor performance

N#Cc1cccc(C(=O)N2CCC(N3CCCC3)CC2)n1 [FX8]
clearance / levels of tau protein [1]: higher efficacy
concentrations in the plasma, brain, or spinal cords ([2]; 3 hours after intraperitoneal administration, FX8 vs FX6 or UNC669, FIG. 3I): highest levels of accumulation
blood-brain barrier penetration (detection in brain and spinal cord tissues) [2]: can penetrate the blood-brain barrier
effect on improving motor performance (Rotarod) (SOD1G93A ALS mouse model [3]): greater effects on improving the animals' motor performance

O=C(c1cncc(Br)c1)N1CCC(N2CCCC2)CC1 [UNC669]
clearance / levels of tau protein [1]: decrease the levels of tau proteins; also recorded: enhanced clearance of tau protein
motor ability / motor performance of the animals (SOD1G93A ALS mouse model [4]): improvement in the animals' motor performance; also recorded: improves the motor ability of the animals
neuronal / motor neuron health (CHAT staining) ([5]; SOD1-G93A mice spinal cords): improved the health of the motor neurons; also recorded: improved neuronal health
immunostaining of spinal cords with antibody specific for misfolded proteins ([5]; SOD1-G93A mice): reduction of the mutant protein
